Experimental data published in patent publication US12377087B2, “Compounds for the treatment of cancer” (UNIVERSITY OF LOUISVILLE RESEARCH FOUNDATION, INC., priority 2015, dated 2025).

Key:
[1] = target: PFKFB3 (Homo sapiens, UniProt Q16875); test: kinase activity of PFKFB3; format: biochemical; conditions: 10 μM
[2] = system: H460 cells; test: Glycolysis assay (3H2O from 5-[3H]glucose) in H460 cells; format: cell-based, human; conditions: H460, 10 μM 5MPN, 6-72 hours
Procedure: Cells growing in 6-well plates were incubated in 500 μl of complete medium containing 1 μCi of 5-[^3H]glucose per well for 60 min in 5% CO2 at 37° C. Media was collected, ^3H2O formed via glycolysis from the 5-[^3H]glucose measured and counts normalized as previously described. For example, the medium was then collected and centrifuged to pellet any suspended cells. To separate the ^3H2O formed via glycolysis from the 5-[^3H]glucose added to the medium, an evaporation technique in a sealed system was utilized. Briefly, 150 μl aliquots of medium were added to open tubes that were placed upright inside scintillation vials containing 1 ml of H2O. The scintillation vials were sealed, and the ^3H2O produced by glycolysis through enolase and released to the medium was allowed to equilibrate with the H2O in the outer vial for 48 h at 37° C. The amounts of ^3H2O that had diffused into the surrounding H2O was measured on a Tri-Carb 2910 liquid scintillation analyzer (Perkin Elmer) and compared with ^3H2O and 5-[^3H]glucose standards. Protein concentration was determined using the BCA assay and counts were normalized to protein concentration. All data are expressed as the mean±SD of three experiments. Statistical significance was assessed by the two-sample t test (independent variable).

[3] = system: LNCaP; test: viable cell count of LNCaP cells; format: cell-based; conditions: 48 hours
Procedure: (§1) Cell Viability: Cells were incubated in 20% trypan blue (Sigma) for 5 minutes. Cells excluding trypan blue were counted using a standard hemocytometer (Hausser Scientific) to determine total numbers of viable cells. Data are expressed as mean±SD of three experiments.

[4] = system: NHBE cells; test: viable cell count of normal human bronchial epithelial cells; format: cell-based; conditions: 48 hours
Text: (§2) Cell lines and cell culture: H460, H1299, H441, H522 and A549 non-small cell lung cancer (NSCLC), MDA-MB-231 (breast), LNCaP (prostatic) and HCT116 (colon) adenocarcinoma and Lewis lung carcinoma (LLC) cell lines were obtained from ATCC and used within 6 months of acquisition, PFKFB4^7 ear pinna Fibroblasts isolated from TamCre/loxP/PFKFB4^−/− mice were immortalized as described previously (Chesney J et al. Fructose-2,6-bisphosphate synthesis by 6-phosphofructo-2-kinase/fructose-2,6-bisphosphatase 4 (PFKFB4) is required for the glycolytic response to hypoxia and tumor growth. Oncotarget 2014 Aug. 30; 5(16):6670-86). Normal bronchial epithelial cells (NHBE) were obtained from Lonza and NHBE cells expressing telomerase, SV40 large T antigen and activated Ras (hT/LT/Ras) were a gift from Dr. B. J. Rollins, Dana Farber Cancer Institute. All cell lines were tested and found negative for mycoplasma (PCR Mycoplasma Detection Kit, ABM). […]
as §1

[5] = system: hT/LT/Ras cells; test: viable cell count of hT/LT/Ras cells; format: cell-based, human; conditions: 48 hours
Text: as §2, §1

[6] = system: PFKFB4−/− lung fibroblasts; test: cell counts of tamoxifen-inducible PFKFB4-/- lung fibroblasts; format: cell-based, mice; conditions: 4HT-induced deletion, 10 μM 5MPN, 24 hours
Text: as §2, §1

[7] = two-week oral toxicity study; format: in vivo; conditions: C57BL/6 mice, 120 mg/kg PO for two weeks
Procedure: Given the potential usefulness of oral administration in terms of cost and convenience, we elected to pursue this route in subsequent toxicity and efficacy pre-clinical studies. Initially, we dosed C57BL/6 mice with 120 mg/kg PO for two weeks and analyzed the effect on complete blood counts, electrolytes, hepatic and renal function, body mass and the gross and histological appearance of the brain, heart, lungs, liver, kidneys and spleen. […] Next, the effects of oral administration of 5MPN on intratumoral F2,6BP and glucose uptake by LLC xenografts was examined. […] It was confirmed that 5MPN caused a G1 arrest in LLC cells in vitro similar to H460 cells (FIG. 4G). The number of Ki67-positive cells was examined since Ki-67 expression correlates with later S and G2 phases of the cell cycle (Sasaki K et al. The cell cycle associated change of the Ki-67 reactive nuclear antigen expression. J Cell Physiol 1987 December; 133(3):579-84).

[8] = system: LLC xenografts; test: intratumoral F2,6BP in LLC xenografts; format: in vivo, C57BL/6 mice; conditions: 120 mg/kg by gavage daily, 10 days
Procedure: F2,6BP measurements: Cells or tissues were prepared as previously described and F2,6BP content measured using a coupled enzyme reaction following the method of Van Schaftingen et at (Van Schaftingen E et al. A kinetic study of pyrophosphate: fructose-6-phosphate phosphotransferase from potato tubers. Application to a microassay of fructose 2,6-bisphosphate. Eur J Biochem 1982 December; 129(1): 191-5) and normalized to total cellular protein measured by the bicinchoninic acid assay (BCA, Thermo Scientific). […] In order to measure F2,6BP, cells were harvested, washed with PBS, lysed in NaOH/Tris acetate by heating at 80° C. and lysates neutralized to pH 7.2. F2,6BP content was measured using a coupled enzyme reaction following the method of Van Schaftingen et al (Eur J Biochem. 1982; 129(1): 191-195). The F2,6BP concentration was normalized to total cellular protein measured by the bicinchoninic acid assay (BCA, Thermo Scientific) All data are expressed as the mean±SD of three experiments. Statistical significance was assessed by the two-sample t test (independent variable).
At the end of the experiment, animals were euthanized, tumors removed and sections fixed in 10% formaldehyde for immunohistochemistry or snap-frozen in liquid nitrogen for analyses. […]

[9] = system: LLC xenografts; test: FDG uptake by micro-positron emission tomography in tumor-bearing mice; format: in vivo; conditions: 120 mg/kg by gavage, once
Procedure: At the end of the experiment, animals were euthanized, tumors removed and sections fixed in 10% formaldehyde for immunohistochemistry or snap-frozen in liquid nitrogen for analyses. Subsets of tumor-bearing mice (n=3) were injected i.p. with 2-[^18F]-fluoro-2-deoxyglucose (FDG, 150 μCi, 100 μl) and imaged by micro-positron emission tomography as previously described. Regions of interest in the tumors and cerebellum were quantified in quadruplicate and expressed as the mean±SD of the tumor:cerebellar FDG uptake ratio. Animal experiments were approved by the University of Louisville Institutional Animal Care and Use Committee.

Sequence of PFKFB3 (Q16875 whole entry, species assumed): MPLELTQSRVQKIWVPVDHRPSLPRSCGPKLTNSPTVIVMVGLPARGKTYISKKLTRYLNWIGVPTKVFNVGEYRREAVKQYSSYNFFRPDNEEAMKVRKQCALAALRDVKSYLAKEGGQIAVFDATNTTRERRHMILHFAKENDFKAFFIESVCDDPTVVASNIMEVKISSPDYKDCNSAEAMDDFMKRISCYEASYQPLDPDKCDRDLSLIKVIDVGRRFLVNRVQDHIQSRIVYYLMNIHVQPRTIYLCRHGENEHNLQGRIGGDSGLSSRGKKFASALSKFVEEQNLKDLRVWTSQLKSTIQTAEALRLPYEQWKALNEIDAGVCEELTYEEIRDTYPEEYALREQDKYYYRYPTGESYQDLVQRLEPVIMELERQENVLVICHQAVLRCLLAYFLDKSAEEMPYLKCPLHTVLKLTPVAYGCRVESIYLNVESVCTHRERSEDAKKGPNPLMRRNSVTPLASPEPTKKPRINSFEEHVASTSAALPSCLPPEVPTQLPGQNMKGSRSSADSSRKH

SMILES: COc1cccc2c(NCCCCCO[N+](=O)[O-])ccnc12 [5MPN, 5-[(8-methoxyquinolin-4-yl)amino]pentyl nitrate]
- inhibition of PFKFB3 kinase activity [1]: no inhibition of kinase activity
- glycolysis [2]: reduced
- growth, viable cells [3]: dose-dependent reduction in growth
- cell growth, live cells [4]: virtually unaffected
- cell growth, live cells [5]: suppressed similar to other transformed cells
- anti-proliferative effect with genomic deletion of Pfkfb4 [6]: sensitized
- toxicity: blood counts, electrolytes, hepatic and renal function, body mass, organ histology, behavioral or clinical changes [7]: no signs of toxicity
- intratumoral F2,6BP [8]: marked reduction
- 2-[18F]-fluoro-2-deoxyglucose uptake, positron emission tomography [9]: marked reduction
